The results in this text go back to ChEMBL document CHEMBL3751791, “Alkenes with antioxidative activities from Murraya koenigii (L.) Spreng” (Bioorg Med Chem Lett, 2016).

Usually IC50 stands for the midpoint of a concentration-inhibition curve.

The nature of the data set: Antioxidative activity of the compound assessed as DPPH radical scavenging activity. Format: physicochemical. Background: The DPPH test is a chemical assay of radical scavenging.
Take `C=C[C@](C)(O)C[C@@H](O)/C=C(\C)[C@@H](O)CC=C(C)C`: the IC50 is 23.5 µM.

As for `CC/C=C/C[C@H](O)/C=C/[C@H](O)[C@H](O)[C@H](O)CCCCC[C@H](C)O`, the IC50 came out at 25.4 µM.

`O=C(/C=C/c1ccc(O)c(O)c1)O[C@@H]1C[C@](O)(C(=O)O)C[C@@H](O)[C@H]1O` [CHLOROGENIC ACID]: the IC50 was 56.4 µM.

`C=C[C@](C)(O)CC/C=C(C)/C=C/[C@@H](O[C@H]1O[C@@H](CO)[C@H](O)[C@@H](O)[C@@H]1O)C(C)(C)O`: the IC50 was determined as 38.4 µM.

Consider `C=C[C@](C)(CC/C=C(\CO)CC/C=C(\C)C[C@@H](O)/C=C(\C)C(=O)O)O[C@H]1O[C@@H](CO)[C@H](O)[C@@H](O)[C@@H]1O`, for which the IC50 was found to be 40.2 µM.
